Test results reported in patent publication US20070004621A1, “Bex4 nucleic acids, polypeptides, and method of using” (priority 2003, published 2007).

What was measured:
[1] = tested on: Bex4 transcription in OV207; assay: Bex4 transcription in OV207 cells after 5-aza-dC treatment; format: cell-based, human; settings: OV207 cell line
Description: Methylation at site 1 in these samples was associated with loss of Bex4 expression, as evidenced by semi-quantitative RT-PCR.

[2] = tested on: Bex4 expression in Xa cell line; assay: Bex4 expression and site 1 methylation in Xa hybrid cell line after inhibitor treatment; format: cell-based; settings: for Bex4 expression / transcription: Xa (active X) hybrid cell line, various concentrations
Procedure: To determine if methylation of site 1 controlled Bex4 expression in the Xa cell line, cells were treated with various concentrations of the methyltransferase inhibitor 5-aza-2′ deoxycytidine (5-aza-dC). […] Epigenetic inactivation Bex4 in Xa was specific, since two genes flanking Bex4, namely Bex3/NADE and pp21 homolog, were expressed in Xa.

[3] = tested on: Bex4 transcription in OV202 cells; assay: Bex4 transcription (RT-PCR) in OV202 cells after 5-aza-2′-deoxycytidine treatment; format: cell-based, human; settings: OV202 cells, 0, 1, 5, or 10 μM, 48 hours, PCR with Bex4 specific primers
Procedure: To determine if hypermethylation is responsible for inactivation of Bex4 expression in OvCa cell lines, OV202 cells were treated with 0, 1, 5, or 10 μM 5-aza-2′-deoxycytidine (a DNA methyltransferase inhibitor) for 48 hours. RNA was extracted, reverse transcribed, and analyzed by PCR using Bex4 specific primers.

Row | Structure (SMILES) | Bex4 transcription [1] | methylation of site 1 (bisulfite-modified DNA) ([2]; 5-aza-dC treated Xa cells) | Bex4 expression / transcription [2] | transcription of Bex4 [3]
1 | Nc1ncn([C@H]2C[C@H](O)[C@@H](CO)O2)c(=O)n1 [5-aza-2′-deoxycytidine] | induced Bex4 transcription | demethylation of site 1 | dose-dependent increase | dose dependant increase
2 | CC(/C=C/C(=O)NO)=C\[C@@H](C)C(=O)c1ccc(N(C)C)cc1 [Trichostatin A, trichostatin A] | – | – | did not affect | –
